# Read-outs that look alike come from different tables or passages of the source.
# Columns and labels:
# INS1 and INS2 mRNA = assay: qRT-PCR of insulin genes in Tm-treated INS-1 cells; type: cell-based, rat; settings: Tm 0.1 μg/mL, 9c 20 μM, 24 h, FIG. 5A, B
# Source text: ER stress also impairs the most important function of β cells: the biosynthesis and secretion of insulin. Multiple steps of insulin synthesis and secretion are impaired under ER stress; they include insulin gene transcription, insulin mRNA stability, protein translation, and the insulin protein secretory process. First, we examined whether compound 9c could rescue Tm-suppressed mRNA levels of insulin genes. […] Second, we examined whether compound 9c affects the expression of β cell transcription factors PDX1 and MafA, which control β cell identity and the expression of insulin genes. Chronic exposure to supraphysiologic concentrations of glucose and its associated ER stress cause the down-regulation of expression of PDX1 and MafA. Consistent with this notion, Tm decreased the levels of PDX1 and MafA mRNA expression levels in INS-1 cells. […] Next, we explored whether compound 9c re-establishes Tm-impaired glucose-stimulated insulin secretion (GSIS).
# INS-1 cells were seeded at 4×10^5 cells/well in 6-well plates and treated with compounds for the indicated times. Total RNA was extracted using TRIzol reagent (Invitrogen, Carlsbad, Calif.) according to the manufacturer's protocol, and 2 μg of total RNA was reverse transcribed using a Superscript kit (Invitrogen). […]
# [1] = tested on: cleaved caspase-3 and PARP; assay: Western blotting of cleaved caspase-3 and cleaved PARP in Tm-treated INS-1 cells; type: cell-based, rat; settings: Tm 0.1 μg/mL, 9c 20 μM, 24 h, FIG. 4A
# Method: To determine whether the increase in cell viability following treatment with 9c was caused by a suppression of apoptotic cell death, levels of cleaved caspase-3 and cleaved PARP were assessed by Western blotting. Caspase-3, a member of executioner caspases, plays essential roles in initiating apoptotic signaling and executing the final stages of cell death as it is responsible for the proteolytic cleavage of many key proteins, such as the nuclear enzyme poly (ADP-ribose) polymerase (PARP) which is a family of proteins involved in a number of cellular processes involving DNA repair and cell death. […] However, upon severe ER stress, caspase 3 undergoes proteolytic cleavage to produce two subunits that dimerize to form the active enzyme, which in turns cleaves PARP.
# INS-1 cells were seeded in 60-mm dishes at 8×10^5 cells/dish and treated for the indicated times. Cells were then washed with PBS and lysed with lysis buffer (Cell Signaling Technology, Danvers, Mass.) containing EDTA (Thermo, IL) and phosphatase inhibitors (Thermo). Aliquots of 20 μg total protein were separated on 7% SDS-PAGE gels (Life Technologies) and transferred to PVDF membranes (Life Technologies). The membranes were probed with primary antibodies followed by the appropriate HRP-conjugated secondary antibodies (goat anti-rabbit IgG and goat anti-mouse IgG, 1:3000; Santa Cruz Biotechnology, CA, USA). […]
# INS-1 cells [2] = assay: INS-1 cell viability after BFA treatment (CellTiter-Glo); type: cell-based, rat; settings: BFA 0.2 μg/mL, 9c 20 μM, 72 h, FIG. 3D
# Source text: To rule out the possibility of an ATP-specific (rather than viability) effect of the compounds, we used the MTT assay, which measures the activity of NAD(P)H-dependent cellular oxidoreductase enzymes, as an orthogonal method to measure cell viability. […] To confirm that the protective effect of 9c on β cells is not INS-1 cell-specific, another β cell line, βTC6, was used. […] To determine whether the protective effect of 9c on β cells is specific to Tm-induced stress, we used another ER stressor, BFA, which inhibits a key guanine nucleotide exchange factor essential for the transport of proteins from the ER to the Golgi, to treat INS-1 cells.
# (§1) INS-1 cells or βTC6 cells were seeded at 3×10^3 cells/well in a 384-well plate and treated with compounds at the indicated concentrations. After 3 d treatment, the medium was aspirated and 20 μL/well of CellTiter-Glo reagent (Promega, WI, USA) was added for the detection of intracellular ATP levels. Cell viability was measured with an EnVision multilabel plate reader (PerkinElmer, MA, USA).
# primary human β cells = assay: TUNEL staining of primary human islet β cells treated with Tm; type: cell-based; settings: primary human islets, Tm 1 μg/mL, 9c 10 μM, 48 h; Tm alone 15%, DMSO 2.5%
# Source text: We determined whether 9c suppresses the apoptosis of primary human β cells induced by Tm treatment as assessed by TUNEL, which detects fragmentation of DNA, a marker of apoptotic cell death. […] Next, we investigated whether 9c restored the Tm-induced insulin secretion defect. […] ER stress induces activation of three branches of UPR (PERK, IRE1α, and ATF6), leading to up-regulation of ATF4, XBP1s, Bip, […], CHOP and eventual activation caspase 3 and cell apoptosis, while diminishing the expression of PDX1, MAFA and insulin genes, leading to β cell dysfunction. Compound 9c protects β cell against ER stress-mediated dysfunction and death by down-regulating ATF4, XBP1s, Bip, GRP94, CHOP, and caspase 3 and up-regulating PDX1, MAFA and insulin genes.
# Primary human islets were washed with PBS and fixed with 4% paraformaldehyde for 30 min. Fixed cells were then blocked in 5% normal donkey serum for 30 min. Polyclonal guinea pig anti-insulin (A0564, Dako, 1:500 dilution) was used as primary antibody. Donkey Cy3 anti-guinea pig IgG was used as the secondary antibody. TUNEL staining was performed with In Situ Cell Death Detection Kit-Fluorescein (Roche) according to the manufacturer's instructions. DAPI was used for nuclear counter-staining. Images were taken with an Olympus FV1000 confocal microscope.
# INS-1 cells [3] = assay: INS-1 cell survival after Tm treatment (CellTiter-Glo, intracellular ATP); type: cell-based, rat; settings: for EC50: Rattus norvegicus, read-out: EC50
# Method: A structure-activity-relationship (SAR) study was thus conducted to improve the weak potency of lead compound 5a. Newly synthesized or commercially available compounds were tested for their β-cell-protective activity against ER stress in rat INS-1 β-cells. […] Maximum activity value in the tables is reported as % rescue from Tm (0.1 μg/mL)-induced reduction of cell viability. The values for Tm treatment alone and control (DMSO, without Tm) treatment are designated as 0% and 100%, respectively in all tables. EC50 values (the concentrations that reach half-maximal activity) for INS-1 cell viability were calculated with GraphPad Prism from the data of ten 2-fold serial titration points in all tables. All experiments were performed in triplicate in all tables.
# as §1
smiles,measurement,setting,value
"COc1ccc(CNc2nc(N3CCCCC3CO)nc3ccccc23)cc1 (racemic) [Compound 9c, (1-(4-((4-methoxybenzyl)amino)quinazolin-2-yl)piperidin-2-yl)methanol]",mRNA levels of insulin genes INS1 and INS2,INS1 and INS2 mRNA,completely rescued
same,cleaved caspase-3 and cleaved PARP protein levels,[1],significantly reversed Tm-induced cleavage of both caspase-3 and PARP
same,viability of INS-1 cells against BFA,INS-1 cells [2],protected INS-1 cells against BFA
same,percentage of TUNEL+ insulin+ cells,primary human β cells,3.5%
same,Maximum activity,"INS-1 cells [3]; % rescue from Tm (0.1 μg/mL)-induced reduction of cell viability, 72 h, Tm alone 0%, DMSO 100%, Table 3",80.4%
same,maximum activity (rescue),INS-1 cells [3]; % rescue from Tm-induced reduction of INS-1 cell viability,80%
same,concentration exhibiting the maximum protective activity,"INS-1 cells [3]; INS-1 cells, Tm 0.1 μg/mL, 72 h, based on dose-dependent curves",5 µM
same,EC50,"INS-1 cells [3]; INS1, 72 h, INS-1 cell viability, Tm 0.1 μg/mL, 72 h, ten 2-fold serial titration points, Table 3",560 ± 180 nM
same,EC50,"INS-1 cells [3]; INS1, running text, INS-1 cell viability in presence of Tm",560 nM

# Source: US10815219B2, “2,4-diaminoquinazoline derivatives for inhibiting endoplasmic reticulum (ER) stress” (The Board of Regents of the University of Oklahoma, priority 2017, dated 2020)
